For eleven molecules, IC50 and inhibition results are on record in ChEMBL document CHEMBL3407453, “LEADOPT: an automatic tool for structure-based lead optimization, and its application in structural optimizations of VEGFR2 and SYK inhibitors” (Eur J Med Chem, 2015).

Active and inactive are the calls of the source. The calls are words filed in the database; no cut-off is given here.

The target of experiment [1] is T1, Vascular endothelial growth factor receptor 2 (Homo sapiens, UniProt P35968). Kind of experiment: Inhibition of VEGFR2 (unknown origin) by [33P]radiolabeled method.
T1 sequence (P35968 whole entry): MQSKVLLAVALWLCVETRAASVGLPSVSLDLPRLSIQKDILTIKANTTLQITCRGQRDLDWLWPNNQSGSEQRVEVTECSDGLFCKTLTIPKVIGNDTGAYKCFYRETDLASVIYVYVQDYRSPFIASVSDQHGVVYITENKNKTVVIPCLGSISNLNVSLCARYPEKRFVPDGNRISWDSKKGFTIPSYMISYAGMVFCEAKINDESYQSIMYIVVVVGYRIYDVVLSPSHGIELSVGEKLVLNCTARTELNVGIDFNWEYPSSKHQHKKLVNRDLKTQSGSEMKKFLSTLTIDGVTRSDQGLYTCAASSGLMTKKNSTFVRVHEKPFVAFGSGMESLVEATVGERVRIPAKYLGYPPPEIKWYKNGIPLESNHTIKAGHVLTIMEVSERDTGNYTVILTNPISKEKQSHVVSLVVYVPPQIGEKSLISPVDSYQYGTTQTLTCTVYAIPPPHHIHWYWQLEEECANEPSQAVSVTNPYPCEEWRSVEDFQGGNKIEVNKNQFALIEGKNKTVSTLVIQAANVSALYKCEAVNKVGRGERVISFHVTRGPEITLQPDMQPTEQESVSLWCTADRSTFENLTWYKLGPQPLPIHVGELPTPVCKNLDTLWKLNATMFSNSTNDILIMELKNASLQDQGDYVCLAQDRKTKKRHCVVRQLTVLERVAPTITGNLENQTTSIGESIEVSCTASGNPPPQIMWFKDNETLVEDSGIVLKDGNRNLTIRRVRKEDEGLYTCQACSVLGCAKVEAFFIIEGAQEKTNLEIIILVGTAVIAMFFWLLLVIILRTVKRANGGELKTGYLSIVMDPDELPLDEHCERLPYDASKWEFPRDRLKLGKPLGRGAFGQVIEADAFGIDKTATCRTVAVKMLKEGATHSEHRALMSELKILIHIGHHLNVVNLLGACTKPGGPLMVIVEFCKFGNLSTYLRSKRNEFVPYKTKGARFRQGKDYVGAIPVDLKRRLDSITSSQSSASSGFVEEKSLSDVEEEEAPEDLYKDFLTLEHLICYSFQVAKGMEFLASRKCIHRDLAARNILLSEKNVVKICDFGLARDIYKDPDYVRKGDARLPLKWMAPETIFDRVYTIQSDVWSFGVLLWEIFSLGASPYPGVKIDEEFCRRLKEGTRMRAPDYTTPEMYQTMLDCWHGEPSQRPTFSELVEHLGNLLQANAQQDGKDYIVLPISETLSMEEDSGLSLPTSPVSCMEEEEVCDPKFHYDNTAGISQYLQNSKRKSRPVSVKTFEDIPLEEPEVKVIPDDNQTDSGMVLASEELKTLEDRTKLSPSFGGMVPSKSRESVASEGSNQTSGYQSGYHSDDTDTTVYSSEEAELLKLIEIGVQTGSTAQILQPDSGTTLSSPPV
Experiment [2] deals with HUVEC. Briefly: Antiangiogenic activity in HUVEC cells assessed as inhibition of cell migration after 18 hrs by wound healing assay. The experiment is classed as functional, cell-based. To be noted: Homo sapiens.
Experiment [3] has as its system HUVEC. Kind of experiment: Antiangiogenic activity in HUVEC cells assessed as inhibition of cell migration at 5 uM after 18 hrs by wound healing assay. The experiment is classed as functional, cell-based. The conditions noted are these: Homo sapiens.
For experiment [4], the target named is T1, Vascular endothelial growth factor receptor 2. Kind of experiment: Inhibition of VEGFR2-mediated ERK1/2 phosphorylation in VEGF-stimulated HUVEC cells at 0.01 to 10 uM after 2 hrs by Western blot analysis. The class given is cell-based.
For experiment [5] the target is unchanged. To be noted: HUVEC, at 0.01 to 10 µM.
Description: Inhibition of VEGFR2 phosphorylation in VEGF-stimulated HUVEC cells at 0.01 to 10 uM after 2 hrs by Western blot analysis
In experiment [6] the target is T2, Tyrosine-protein kinase SYK (Homo sapiens, UniProt P43405). Kind of experiment: Inhibition of SYK (unknown origin).
Another experiment deals with Ramos. Briefly: Cytotoxicity against human Ramos cells assessed as reduction in cell viability after 72 hrs by MTT assay. The experiment is classed as functional, cell-based. On the technique in general: Tetrazolium dyes change colour on reduction, which living cells bring about.
In another experiment the test system is MV4-11. Kind of experiment: Cytotoxicity against human MV4-11 cells assessed as reduction in cell viability after 72 hrs by MTT assay. The class given is functional, cell-based. To be noted: MV4-11, 72 h.
Experiment [7] concerns the target T2, Tyrosine-protein kinase SYK. Briefly: Inhibition of SYK-mediated FLT3 phosphorylation in human MV4-11 cells at 0.01 to 1 uM after 6 hrs by Western blot analysis. The class given is cell-based. A general note: A western blot detects proteins with antibodies after separation by electrophoresis.
Experiment [8] shares this target. Kind of experiment: Inhibition of SYK-mediated ERK1/2 phosphorylation in human MV4-11 cells at 0.01 to 1 uM after 6 hrs by Western blot analysis. The class given is cell-based.

Take `CNC(=O)c1cc(Oc2ccc(NC(=O)Nc3cc(C(C)(C)C)on3)cc2)ccn1`: in experiment [1], 17 nM corresponded to half-maximal inhibition (IC50). Moreover, in the experiment with HUVEC [2], the inhibition result was “Dose-dependent effect”. The inhibition entry (with HUVEC [3]; in experiment [4]; in experiment [5]) was “Active” in each case.

Consider `COc1cc(Nc2ncc(F)c(Nc3ccc4nc(C)cc(N)c4c3)n2)cc(OC)c1OC`, for which the IC50 (usually the concentration that gives 50% inhibition) in experiment [6] was found to be 2960 nM.

`CNC(=O)c1cc(Oc2ccc(NC(=O)Nc3ccc(Cl)c(C(F)(F)F)c3)cc2)ccn1`: in the experiment with HUVEC [3], the inhibition result was “Active”.

In turn, `Nc1nccc(Oc2ccc(NC(=O)Nc3ccc(Cl)c(C(F)(F)F)c3)cc2)n1` had an IC50 in experiment [1] of 23 nM.

The molecule `O=C(Nc1ccc(Oc2ccnc3ccccc23)cc1)Nc1ccc(Cl)c(C(F)(F)F)c1` returned an IC50 in experiment [1] of 119 nM.

The molecule `N#Cc1cc(Oc2ccc(NC(=O)Nc3ccc(Cl)c(C(F)(F)F)c3)cc2)ccn1` showed an IC50 in [1] of 214 nM.

With `COc1cc(Nc2ncc(F)c(Nc3cc(Cl)ccc3C(N)=O)n2)cc(OC)c1OC`, in experiment [6], the IC50 stood at 326 nM.

`COc1cc(Nc2ncc(F)c(Nc3cccc(C(N)=O)c3)n2)cc(OC)c1OC` had an IC50 in experiment [6] of 1130 nM.

For the molecule `Cc1cc(N)c2cc(Nc3nc(Nc4ccc(N5CCN(C)CC5)cc4)ncc3F)ccc2n1`, the IC50 is 13 nM in experiment [6], 510 nM in the experiment with Ramos and 3 nM in the experiment with MV4-11. The inhibition result in experiment [7] and in experiment [8] was “Active” throughout.

In turn, `CNC(=O)c1nccc(Oc2ccc(NC(=O)Nc3nc4ccccc4s3)cc2)n1` showed an IC50 in [1] of 36 nM.

As to `Nc1nccc(Oc2ccc(NC(=O)Nc3nc4ccccc4s3)cc2)n1`, the IC50 in experiment [1] was determined as 120 nM.
